In patent publication US12421249B2, “Inhibitors of APOL1 and methods of using same” (Vertex Pharmaceuticals Incorporated, priority 2020, dated 2025):

What was measured:
APOL1 = target: T1, APOL1 (Homo sapiens, UniProt O14791); assay: Multi-Tox Assay (MultiTox-Fluor Multiplex Cytotoxicity Assay in tet-inducible APOL1 T-REx-HEK293 cells; Table 46 does not say which APOL1 variant G0/G1/G2); format: cell-based; conditions: APOL1 variant not given; for IC50: IP50 = IC50 for cell proliferation
T1 sequence (O14791 1-398 S342G/I384M): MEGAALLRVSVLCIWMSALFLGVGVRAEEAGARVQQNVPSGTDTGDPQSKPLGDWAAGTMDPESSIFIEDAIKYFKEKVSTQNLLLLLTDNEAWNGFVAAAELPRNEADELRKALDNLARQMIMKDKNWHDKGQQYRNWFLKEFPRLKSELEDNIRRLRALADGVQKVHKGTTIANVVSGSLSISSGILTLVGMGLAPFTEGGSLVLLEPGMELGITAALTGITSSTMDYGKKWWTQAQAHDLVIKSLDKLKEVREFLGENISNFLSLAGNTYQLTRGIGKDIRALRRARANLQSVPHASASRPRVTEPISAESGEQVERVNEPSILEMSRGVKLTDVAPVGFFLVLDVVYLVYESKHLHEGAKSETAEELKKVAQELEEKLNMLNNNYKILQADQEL

APOL1 G1 = target: T2, APOL1 G1 (Homo sapiens, UniProt O14791, I384M/S342G); assay: Trypanosoma brucei brucei Lysis Assay Using APOL1 Recombinant Protein (AlamarBlue viability readout); format: cell-based; conditions: Trypanosome Assay; for IC50: IP50 = IC50 for cell proliferation, read-out: Trypanosome Assay IP50; for Emax: read-out: Trypanosome Assay Max Activity (%)
T2 sequence (O14791 28-398 S342G/I384M): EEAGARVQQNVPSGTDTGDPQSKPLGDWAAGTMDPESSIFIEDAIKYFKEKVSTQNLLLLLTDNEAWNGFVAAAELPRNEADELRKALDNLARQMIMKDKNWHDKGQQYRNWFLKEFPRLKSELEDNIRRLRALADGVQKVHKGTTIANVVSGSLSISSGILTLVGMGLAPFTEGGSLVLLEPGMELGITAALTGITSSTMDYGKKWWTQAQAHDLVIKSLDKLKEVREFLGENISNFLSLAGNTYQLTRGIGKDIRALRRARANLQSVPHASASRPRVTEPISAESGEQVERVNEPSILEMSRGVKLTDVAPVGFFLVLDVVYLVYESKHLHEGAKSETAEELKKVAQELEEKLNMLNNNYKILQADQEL
Summary of the method: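 Percent viability comes from AlamarBlue (resazurin→resorufin) fluorescence interpolated on a standard curve of known parasite numbers, with no-APOL1 wells as 100%. Parasites (Lister 427 bloodstream form, 120,000/well, serum-free assay medium) meet 0.05 μg/mL APOL1 (~EC90). Compounds span a 10-point series, 0.1% DMSO final.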

SMILES	IC90 (APOL1) [nM]	Multi-Tox Assay Max Activity (%) (APOL1)	IC50 (APOL1) [nM]	IC50 (APOL1 G1) [nM]	Emax (APOL1 G1) [%]
CC1CC2(CC(c3cn[nH]c3)N1)OCCc1cc(Cl)sc12 (stereo not shown) [Compound 31]	< 50	100.0	< 50	< 50	123
CC1CC2(CC(c3cc(F)cc(C#N)c3)N1)OCCc1cc(Cl)sc12 (stereo not shown) [Compound 33]			< 50	< 50	111
COc1ccc(C2CC3(CC(C)N2)OCCc2cc(Cl)sc23)nc1 (stereo not shown) [Compound 34]		99.0	< 50	< 50	115
CC1CC2(CC(c3ccc4[nH]ncc4c3)N1)OCCc1cc(Cl)sc12 (stereo not shown) [Compound 35]			< 50	< 50	111
CC(=O)Nc1ccc(C2CC3(CC(C)N2)OCCc2cc(Cl)sc23)cn1 (stereo not shown) [Compound 37]			< 50	< 50	114
CC1CC2(CC(c3cnn(C)n3)N1)OCCc1cc(Cl)sc12 (stereo not shown) [Compound 38]			< 50	< 50	112
CC1CC2(CC(c3ccc4c(c3)OCC(=O)N4)N1)OCCc1cc(Cl)sc12 (stereo not shown) [Compound 39]			< 50	< 50	116
CC1CC2(CC(c3cnn(-c4cccnc4)c3)N1)OCCc1cc(Cl)sc12 (stereo not shown) [Compound 40]		100.0	< 50	< 50	118
CNC(=O)c1ccc(C2CC3(CC(C)N2)OCCc2cc(Cl)sc23)cc1 (stereo not shown) [Compound 41]			< 50	< 50	112
Cc1nn(C)c2ncc(C3CC4(CC(C)N3)OCCc3cc(Cl)sc34)cc12 (stereo not shown) [Compound 42]			< 50	< 50	110
Cc1cc(C2CC3(CC(C)N2)OCCc2cc(Cl)sc23)ncn1 (stereo not shown) [Compound 43]		100.0	< 50	< 50	103
CC1CC2(CC(c3cncnc3)N1)OCCc1cc(Cl)sc12 (stereo not shown) [Compound 45]		100.0	< 50	< 50	103
CC1CC2(CC(c3cnn(CCS(C)(=O)=O)c3)N1)OCCc1cc(Cl)sc12 (stereo not shown) [Compound 46]		99.0	< 50	< 50	108
CC1CC2(CC(c3cn(CC4CC4)nn3)N1)OCCc1cc(Cl)sc12 (stereo not shown) [Compound 122]			< 50	50 to 500	106
C[C@H]1C[C@@]2(C[C@@H](c3cn(C)nn3)N1)OC[C@@H](O)c1cc(Cl)sc12 [Compound 174, (2′S,4S,6′S,7S)-2-chloro-2′-methyl-6′-(1-methyltriazol-4-yl)spiro[4,5-dihydrothieno[2,3-c]pyran-7,4′-piperidine]-4-ol]			< 50	< 50	104
C[C@H]1C[C@@]2(C[C@@H](c3cn(C)nn3)N1)OC[C@H](O)c1cc(C(F)(F)F)sc12 [Compound 180]			< 50	< 50	102

SMILES	IC90 (APOL1) [nM]	Multi-Tox Assay Max Activity (%) (APOL1)	IC50 (APOL1) [nM]	IC50 (APOL1 G1) [nM]	Emax (APOL1 G1) [%]
C[C@H]1C[C@@]2(C[C@@H](c3cn(C)nn3)N1)OC[C@@H](O)c1cc(C(F)(F)F)sc12 [Compound 181, (2S,4S,4′S,6S)-2-methyl-6-(1-methyl-1H-1,2,3-triazol-4-yl)-2′-(trifluoromethyl)-4′,5′-dihydrospiro[piperidine-4,7′-thieno[2,3-c]pyran]-4′-ol]			< 50	< 50	102
C[C@H]1C[C@@]2(C[C@@H](c3cn(C)nn3)N1)OC[C@@H](O)c1sc(Cl)cc12 [Compound 182]			< 50	< 50	113
C[C@H]1C[C@@]2(C[C@@H](c3cn(C)nn3)N1)OCC(F)(F)c1cc(Cl)sc12 [Compound 183, (2′S,6′S,7S)-2-chloro-4,4-difluoro-2′-methyl-6′-(1-methyltriazol-4-yl)spiro[5H-thieno[2,3-c]pyran-7,4′-piperidine]]			< 50	50 to 500	106
CCC1CC2(CC(c3cn(C)nn3)N1)OCCc1cc(Cl)sc12 (stereo not shown) [Compound 186, 2-chloro-2′-ethyl-6′-(1-methyltriazol-4-yl)spiro[4,5-dihydrothieno[2,3-c]pyran-7,4′-piperidine]]	50 to 500	99.3	< 50	50 to 500	104
CCC1CC2(CC(c3cn(C)nn3)N1)OCCc1cc(C(F)(F)F)sc12 (stereo not shown) [Compound 187, 2′-ethyl-6′-(1-methyltriazol-4-yl)-2-(trifluoromethyl)spiro[4,5-dihydrothieno[2,3-c]pyran-7,4′-piperidine]]	< 50	100.0	< 50	50 to 500	106
CC(C)C1CC2(CC(c3cn(C)nn3)N1)OCCc1cc(Cl)sc12 (stereo not shown) [Compound 188]	50 to 500	99.0	50 to 500	50 to 500	108
Cn1cc(C2CC3(CC(C4CCC4)N2)OCCc2cc(Cl)sc23)nn1 (stereo not shown) [Compound 189]			50 to 500	> 500	87.5
COCC1CC2(CC(c3cn(C)nn3)N1)OCCc1cc(Cl)sc12 (stereo not shown) [Compound 190]			50 to 500	> 500	92.5
CC(C)C1CC2(CC(c3cn(C)nn3)N1)OCCc1cc(C(F)(F)F)sc12 (stereo not shown) [Compound 191]			50 to 500	50 to 500	108
Cn1cc(C2CC3(CC(C4CCC4)N2)OCCc2cc(C(F)(F)F)sc23)nn1 (stereo not shown) [Compound 192]			50 to 500	50 to 500	100
COCC1CC2(CC(c3cn(C)nn3)N1)OCCc1cc(C(F)(F)F)sc12 (stereo not shown) [Compound 193]			50 to 500	50 to 500	100
C[C@H]1CC2(C[C@H](C)N1)OCCc1sc(C(F)(F)F)cc12 (stereo partly shown) [Compound 195]			> 500	> 500	50.7
COC(=O)[C@@H]1C[C@]2(C[C@H](C)N1)OCCc1cc(Cl)sc12 [Compound 209, methyl (2′S,6′S,7S)-2-chloro-6′-methyl-spiro[4,5-dihydrothieno[2,3-c]pyran-7,4′-piperidine]-2′-carboxylate]			> 500	50 to 500	100
C[C@H]1C[C@@]2(C[C@@H](CC3CCOCC3)N1)OCCc1cc(Cl)sc12 [Compound 219, (2S,6R)-2-chloro-2′-methyl-6′-(tetrahydropyran-4-ylmethyl)spiro[4,5-dihydrothieno[2,3-c]pyran-7,4′-piperidine]]			> 500	> 500	71
C[C@H]1C[C@@]2(C[C@@H](C3CC3)N1)OCC(O)c1cc(Cl)sc12 (stereo partly drawn) [Compound 220, (2S,6S)-2-chloro-2′-cyclopropyl-6′-methyl-spiro[4,5-dihydrothieno[2,3-c]pyran-7,4′-piperidine]-4-ol]			< 50	< 50	110
